For assay [1], the target named is T1, Phospho-EGFR (Tyr1068) in H1975 cells (Homo sapiens, UniProt P00533, L858R/T790M).
T1 construct: host or cells: H1975
The assay can be described thus: HTRF pEGFR/total EGFR in H1975 cells. In kind it is cell-based. Conditions: ratio pEGFR/total EGFR, compound 3 hours. An outline of the steps: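 Readout is the phospho-EGFR (Tyr1068) to total EGFR HTRF ratio, expressed relative to 0 μM control. Adhered H1975 cells were exposed to compound for 3 hours at 0.1% DMSO, duplicate wells, then lysed for 30 min at room temperature before two-wavelength fluorescence reading.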
For orientation: TR-FRET usually uses a lanthanide donor and a delayed reading to cut background.

The target of assay [2] is T2, Phospho-EGFR (Tyr1068) in H1975 C797S cells (CRISPR-edited EGFR C797S) (Homo sapiens, UniProt P00533, C797S/L858R/T790M).
T2 construct: host or cells: H1975 C797S (CRISPR-edited)
As to the kind of experiment: HTRF pEGFR/total EGFR in H1975 C797S cells. In kind it is cell-based. The settings on record: ratio pEGFR/total EGFR, compound 3 hours. An outline of the steps: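 Readout is the HTRF-measured Tyr1068 phospho-EGFR to total EGFR ratio, normalised to the 0 μM control as percent. Preceding this, CRISPR-edited H1975 C797S cells, plated 24 h earlier, were exposed 3 h to duplicate compound doses in medium with 0.1% DMSO, then lysed on a shaker.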

Assay [3] has as its target T3, Phospho-EGFR (Tyr1068) in A431 cells (Homo sapiens, UniProt P00533).
T3 construct: endogenous in cells; host or cells: A431
The assay can be described thus: HTRF pEGFR/total EGFR in A431 cells with EGF stimulation. In kind it is cell-based. Conditions: ratio pEGFR/total EGFR, compound 2.5 hours then 100 ng/ml EGF 30 mins. In short, it runs like this: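 Values are pEGFR(Tyr1068)/total EGFR HTRF ratios (665/620 nm) given as percent of the 0 μM control. Adhered A431 cells (20,000 per well, 24 h) had 2.5 h compound pretreatment in 0.1% DMSO, then 30 min of 100 ng/ml EGF before lysis.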

In assay [4] the target is CtermHisTag-mEGFR Wild type (Homo sapiens, UniProt P00533). The assay can be described thus: biochemical.
Sequence of CtermHisTag-mEGFR Wild type (P00533 whole entry): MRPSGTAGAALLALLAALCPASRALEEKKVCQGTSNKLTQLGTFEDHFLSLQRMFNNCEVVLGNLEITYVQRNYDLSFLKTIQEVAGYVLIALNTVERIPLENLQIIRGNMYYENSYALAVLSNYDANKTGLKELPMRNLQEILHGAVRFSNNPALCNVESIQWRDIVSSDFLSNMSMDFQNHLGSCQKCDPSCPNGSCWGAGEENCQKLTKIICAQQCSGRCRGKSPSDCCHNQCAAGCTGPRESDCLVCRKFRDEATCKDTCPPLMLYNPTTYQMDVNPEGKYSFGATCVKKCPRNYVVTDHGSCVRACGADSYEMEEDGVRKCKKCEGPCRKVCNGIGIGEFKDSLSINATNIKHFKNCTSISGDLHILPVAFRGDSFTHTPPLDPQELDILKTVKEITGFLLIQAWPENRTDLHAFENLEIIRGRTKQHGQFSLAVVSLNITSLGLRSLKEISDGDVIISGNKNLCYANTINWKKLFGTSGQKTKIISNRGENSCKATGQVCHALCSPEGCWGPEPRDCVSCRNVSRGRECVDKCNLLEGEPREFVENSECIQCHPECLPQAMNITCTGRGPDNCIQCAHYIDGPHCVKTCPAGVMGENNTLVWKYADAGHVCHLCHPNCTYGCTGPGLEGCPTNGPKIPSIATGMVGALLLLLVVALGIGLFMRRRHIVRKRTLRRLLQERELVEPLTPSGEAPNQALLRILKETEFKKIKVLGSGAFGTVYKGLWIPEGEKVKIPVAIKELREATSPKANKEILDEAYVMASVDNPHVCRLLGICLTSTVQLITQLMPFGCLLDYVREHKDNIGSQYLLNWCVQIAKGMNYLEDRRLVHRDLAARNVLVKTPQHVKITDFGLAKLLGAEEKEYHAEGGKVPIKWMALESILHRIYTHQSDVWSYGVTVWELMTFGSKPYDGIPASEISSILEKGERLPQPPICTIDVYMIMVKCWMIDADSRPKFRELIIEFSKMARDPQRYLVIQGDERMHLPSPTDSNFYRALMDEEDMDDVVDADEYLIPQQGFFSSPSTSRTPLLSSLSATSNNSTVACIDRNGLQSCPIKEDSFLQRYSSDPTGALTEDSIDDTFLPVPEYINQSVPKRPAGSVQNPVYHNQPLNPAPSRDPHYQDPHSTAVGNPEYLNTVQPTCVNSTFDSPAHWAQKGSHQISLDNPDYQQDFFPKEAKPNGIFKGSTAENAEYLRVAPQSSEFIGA

T2 sequence (P00533 25-1210 T790M/C797S/L858R): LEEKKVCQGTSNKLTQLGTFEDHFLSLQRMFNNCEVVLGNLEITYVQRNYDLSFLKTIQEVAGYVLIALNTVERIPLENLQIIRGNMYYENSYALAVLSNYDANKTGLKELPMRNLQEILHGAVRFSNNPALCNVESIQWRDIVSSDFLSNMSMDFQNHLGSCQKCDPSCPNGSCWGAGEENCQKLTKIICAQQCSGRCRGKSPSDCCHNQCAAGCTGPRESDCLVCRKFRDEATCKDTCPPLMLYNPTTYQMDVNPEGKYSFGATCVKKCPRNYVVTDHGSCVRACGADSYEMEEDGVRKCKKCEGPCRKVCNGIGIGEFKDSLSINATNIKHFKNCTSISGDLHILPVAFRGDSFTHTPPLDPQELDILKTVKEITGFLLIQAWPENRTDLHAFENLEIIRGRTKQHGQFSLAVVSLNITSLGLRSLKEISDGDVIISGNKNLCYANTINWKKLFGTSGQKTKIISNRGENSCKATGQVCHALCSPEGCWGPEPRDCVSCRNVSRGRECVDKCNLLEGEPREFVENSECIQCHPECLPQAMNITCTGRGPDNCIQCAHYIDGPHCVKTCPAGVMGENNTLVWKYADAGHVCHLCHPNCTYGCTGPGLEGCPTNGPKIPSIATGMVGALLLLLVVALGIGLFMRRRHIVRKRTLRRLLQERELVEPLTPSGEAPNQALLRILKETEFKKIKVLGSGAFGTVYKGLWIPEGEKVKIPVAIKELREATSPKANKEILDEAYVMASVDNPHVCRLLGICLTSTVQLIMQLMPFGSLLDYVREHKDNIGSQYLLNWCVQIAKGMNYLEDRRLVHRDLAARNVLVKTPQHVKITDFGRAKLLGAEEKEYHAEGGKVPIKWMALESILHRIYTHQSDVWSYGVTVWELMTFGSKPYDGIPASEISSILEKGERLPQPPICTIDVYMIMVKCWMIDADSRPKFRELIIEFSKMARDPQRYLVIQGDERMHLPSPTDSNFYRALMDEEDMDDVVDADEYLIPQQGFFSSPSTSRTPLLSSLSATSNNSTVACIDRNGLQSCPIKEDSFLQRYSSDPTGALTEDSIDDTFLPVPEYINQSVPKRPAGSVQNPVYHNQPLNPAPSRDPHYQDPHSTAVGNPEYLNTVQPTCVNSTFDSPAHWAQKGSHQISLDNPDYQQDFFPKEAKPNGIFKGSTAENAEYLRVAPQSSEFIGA
T1 sequence (P00533 25-1210 T790M/L858R): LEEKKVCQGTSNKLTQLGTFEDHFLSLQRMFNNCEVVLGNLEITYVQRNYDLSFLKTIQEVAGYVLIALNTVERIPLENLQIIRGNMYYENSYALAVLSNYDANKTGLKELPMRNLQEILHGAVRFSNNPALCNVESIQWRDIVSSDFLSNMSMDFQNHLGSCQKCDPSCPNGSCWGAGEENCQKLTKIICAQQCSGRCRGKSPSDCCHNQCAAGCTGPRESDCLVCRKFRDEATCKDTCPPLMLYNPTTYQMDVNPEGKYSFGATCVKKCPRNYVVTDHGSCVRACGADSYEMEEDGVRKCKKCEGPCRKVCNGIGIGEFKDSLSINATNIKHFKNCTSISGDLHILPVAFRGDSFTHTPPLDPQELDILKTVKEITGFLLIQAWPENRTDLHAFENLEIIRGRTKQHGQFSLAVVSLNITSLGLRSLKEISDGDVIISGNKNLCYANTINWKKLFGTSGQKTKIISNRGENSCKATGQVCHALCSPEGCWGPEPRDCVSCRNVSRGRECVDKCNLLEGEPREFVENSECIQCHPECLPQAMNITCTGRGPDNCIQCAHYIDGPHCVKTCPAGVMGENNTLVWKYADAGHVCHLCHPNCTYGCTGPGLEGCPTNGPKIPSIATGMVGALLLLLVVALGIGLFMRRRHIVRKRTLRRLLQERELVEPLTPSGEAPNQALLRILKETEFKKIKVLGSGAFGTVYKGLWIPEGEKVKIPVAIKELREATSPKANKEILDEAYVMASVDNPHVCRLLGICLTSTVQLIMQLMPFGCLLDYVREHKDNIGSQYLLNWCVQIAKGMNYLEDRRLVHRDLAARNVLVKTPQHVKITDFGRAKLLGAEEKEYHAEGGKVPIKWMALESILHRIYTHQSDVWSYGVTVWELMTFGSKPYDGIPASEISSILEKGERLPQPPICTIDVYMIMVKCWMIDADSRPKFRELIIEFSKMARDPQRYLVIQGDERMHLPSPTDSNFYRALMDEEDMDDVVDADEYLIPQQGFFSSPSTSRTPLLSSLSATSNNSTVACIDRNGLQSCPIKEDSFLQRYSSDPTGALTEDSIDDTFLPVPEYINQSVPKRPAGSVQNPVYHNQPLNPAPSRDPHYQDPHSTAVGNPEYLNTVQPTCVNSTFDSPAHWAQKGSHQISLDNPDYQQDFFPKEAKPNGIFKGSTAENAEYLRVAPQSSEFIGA
T3 sequence (P00533 25-1210): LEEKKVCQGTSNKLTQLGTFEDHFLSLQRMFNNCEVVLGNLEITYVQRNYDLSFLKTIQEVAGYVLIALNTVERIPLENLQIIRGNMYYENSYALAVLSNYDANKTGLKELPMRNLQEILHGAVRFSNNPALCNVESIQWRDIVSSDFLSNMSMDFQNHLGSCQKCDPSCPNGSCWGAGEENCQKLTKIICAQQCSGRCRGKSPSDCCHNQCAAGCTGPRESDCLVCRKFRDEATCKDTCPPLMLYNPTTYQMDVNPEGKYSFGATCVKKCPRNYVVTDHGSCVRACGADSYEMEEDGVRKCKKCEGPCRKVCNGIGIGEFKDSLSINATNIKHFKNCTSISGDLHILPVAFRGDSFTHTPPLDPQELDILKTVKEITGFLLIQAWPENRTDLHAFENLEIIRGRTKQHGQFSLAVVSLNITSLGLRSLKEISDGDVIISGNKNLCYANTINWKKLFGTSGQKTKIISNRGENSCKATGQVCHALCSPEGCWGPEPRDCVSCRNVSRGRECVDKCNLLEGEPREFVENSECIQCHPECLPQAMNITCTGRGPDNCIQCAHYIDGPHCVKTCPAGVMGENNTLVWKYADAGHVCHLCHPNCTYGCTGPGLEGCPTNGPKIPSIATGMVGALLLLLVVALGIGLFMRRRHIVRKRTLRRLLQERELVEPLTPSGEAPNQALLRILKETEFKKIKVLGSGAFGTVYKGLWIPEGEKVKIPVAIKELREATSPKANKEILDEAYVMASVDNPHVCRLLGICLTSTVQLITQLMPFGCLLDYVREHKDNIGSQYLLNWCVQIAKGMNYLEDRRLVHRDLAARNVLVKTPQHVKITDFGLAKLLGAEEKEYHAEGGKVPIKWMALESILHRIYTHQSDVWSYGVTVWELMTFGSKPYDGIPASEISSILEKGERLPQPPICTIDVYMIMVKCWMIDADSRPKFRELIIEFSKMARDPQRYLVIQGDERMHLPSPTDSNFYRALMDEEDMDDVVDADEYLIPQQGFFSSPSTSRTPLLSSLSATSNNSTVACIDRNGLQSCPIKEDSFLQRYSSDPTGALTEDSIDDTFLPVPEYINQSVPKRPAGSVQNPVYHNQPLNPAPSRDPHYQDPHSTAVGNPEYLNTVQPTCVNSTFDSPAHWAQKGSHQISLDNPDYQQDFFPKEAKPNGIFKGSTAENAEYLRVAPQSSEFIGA

As a reminder, the IC50 is the point on the concentration scale where inhibition reaches its midpoint. As for `C#Cc1cc(=O)[nH]c2nc(Nc3ccc(N4CCN(C)CC4)c(CNC(=O)C=C)c3)ncc12` [Example 201], the IC50 in assay [1] is less than 500 nM; in assay [2], 500 to 1000 nM; in assay [3], greater than 3000 nM; in assay [4] it was less than 1000 nM.
Consider `C#Cc1cc(=O)n(C2CCCC2)c2nc(Nc3cccc(N(C)[C@H]4C[C@H](CS(C)(=O)=O)C4)c3)ncc12` [Example 205], for which the IC50 in assay [1] was greater than 3000 nM; in assay [2] it was greater than 3000 nM; in assay [3] it was greater than 3000 nM; in assay [4], less than 1000 nM.
As to `C#Cc1cc(=O)n(C2CCCC2)c2nc(Nc3cccc(N(C)[C@H]4CC[C@H](CS(C)(=O)=O)CC4)c3)ncc12` [Example 206], the IC50 was greater than 3000 nM in assay [1], greater than 3000 nM in assay [2], greater than 3000 nM in assay [3] and less than 1000 nM in assay [4].
With `C#Cc1cc(=O)n(C)c2nc(Nc3ccc(N4CCN(C)CC4)c(OCCC)c3)ncc12` [Example 207, 5-Ethynyl-8-methyl-2-((4-(4-methylpiperazin-1-yl)-3-propoxyphenyl)amino)pyrido[2,3-d]pyrimidin-7(8H)-one], the IC50 in assay [1] is less than 500 nM; in assay [2] it was less than 500 nM; in assay [3], 500 to 1000 nM; in assay [4], less than 1000 nM.
Consider `C#Cc1cc(=O)n(C)c2nc(Nc3ccc(N4CCN(C)CC4)c(OC)c3)ncc12` [Example 208, 5-Ethynyl-2-((3-methoxy-4-(4-methylpiperazin-1-yl)phenyl)amino)-8-methylpyrido[2,3-d]pyrimidin-7(8H)-one], for which the IC50 in assay [1] was less than 500 nM; in assay [2], less than 500 nM; in assay [3], 1000 to 3000 nM; in assay [4], less than 1000 nM.
For the compound `C#Cc1cc(=O)n(C)c2nc(Nc3ccc(N4CCN(C)CC4)c(OCCC4CCCC4)c3)ncc12` [Example 209, 2-((3-(2-Cyclopentylethoxy)-4-(4-methylpiperazin-1-yl)phenyl)amino)-5-ethynyl-8-methylpyrido[2,3-d]pyrimidin-7(8H)-one], the 50% inhibitory concentration (IC50) in assay [1] is less than 500 nM; in assay [2], less than 500 nM; in assay [3], less than 500 nM; in assay [4], less than 1000 nM.
As for `C#Cc1cc(=O)n(Cc2ccn(C)n2)c2nc(Nc3ccc(N4CCN(C)CC4)c(OCCC4CCCC4)c3)ncc12` [Example 210, 2-((3-(2-Cyclopentylethoxy)-4-(4-methylpiperazin-1-yl)phenyl)amino)-5-ethynyl-8-((1-methyl-1H-pyrazol-3-yl)methyl)pyrido[2,3-d]pyrimidin-7(8H)-one], the IC50 in assay [1] is less than 500 nM; in assay [2], less than 500 nM; in assay [3], greater than 3000 nM; in assay [4], less than 1000 nM.
As for `C#Cc1cc(=O)n(C)c2nc(Nc3ccc(N4CCN(C)CC4)c(OCC4CCCC4)c3)ncc12` [Example 211, 2-((3-(Cyclopentylmethoxy)-4-(4-methylpiperazin-1-yl)phenyl)amino)-5-ethynyl-8-methylpyrido[2,3-d]pyrimidin-7(8H)-one], the IC50 in assay [1] was less than 500 nM; in assay [2], less than 500 nM; in assay [3] it was greater than 3000 nM; in assay [4], less than 1000 nM.
Take `C#Cc1cc(=O)n(C)c2nc(Nc3ccc(N4CCN(C)CC4)c(OCCCC4CCCC4)c3)ncc12` [Example 212, 2-((3-(3-Cyclopentylpropoxy)-4-(4-methylpiperazin-1-yl)phenyl)amino)-5-ethynyl-8-methylpyrido[2,3-d]pyrimidin-7(8H)-one]: the IC50 in assay [1] was less than 500 nM; in assay [2], less than 500 nM; in assay [3] it was greater than 3000 nM; in assay [4], less than 1000 nM.
Take `C#Cc1cc(=O)n(C)c2nc(Nc3ccc(N4CCN(C)CC4)c(OCCC4CCCCC4)c3)ncc12` [Example 213, 2-((3-(2-Cyclohexylethoxy)-4-(4-methylpiperazin-1-yl)phenyl)amino)-5-ethynyl-8-methylpyrido[2,3-d]pyrimidin-7(8H)-one]: the IC50 in assay [1] was less than 500 nM; in assay [2], 500 to 1000 nM; in assay [3], 1000 to 3000 nM; in assay [4], less than 1000 nM.
Taken in the same sequence, the figures for `C#Cc1cc(=O)n(C)c2nc(Nc3ccc(N4CCN(C)CC4)c(OCCc4ccccc4)c3)ncc12` [Example 214, 5-Ethynyl-8-methyl-2-((4-(4-methylpiperazin-1-yl)-3-phenethoxyphenyl)amino)pyrido[2,3-d]pyrimidin-7(8H)-one] were less than 500 nM, less than 500 nM, 1000 to 3000 nM and less than 1000 nM.
Taken in the same sequence, the figures for `C#Cc1cc(=O)n(C)c2nc(Nc3ccc(N4CCN(C)CC4)c(OC4CCCC4)c3)ncc12` [Example 215, 2-((3-(Cyclopentyloxy)-4-(4-methylpiperazin-1-yl)phenyl)amino)-5-ethynyl-8-methylpyrido[2,3-d]pyrimidin-7(8H)-one] were less than 500 nM, less than 500 nM, 1000 to 3000 nM and less than 1000 nM.
For `C#Cc1cc(=O)n(C)c2nc(Nc3ccc(N4CCN(C)CC4)c(OCCC(C)C)c3)ncc12` [Example 216, 5-Ethynyl-2-((3-(isopentyloxy)-4-(4-methylpiperazin-1-yl)phenyl)amino)-8-methylpyrido[2,3-d]pyrimidin-7(8H)-one], in that order: less than 500 nM, less than 500 nM, 1000 to 3000 nM and less than 1000 nM.
In the case of `C#Cc1cc(=O)n(C)c2nc(Nc3ccc(N4CCN(C)CC4)c(NC(=O)CC4CCCC4)c3)ncc12` [Example 217, 2-Cyclopentyl-N-(5-((5-ethynyl-8-methyl-7-oxo-7,8-dihydropyrido[2,3-d]pyrimidin-2-yl)amino)-2-(4-methylpiperazin-1-yl)phenyl)acetamide], the IC50 was less than 500 nM in assay [1], less than 500 nM in assay [2], 1000 to 3000 nM in assay [3] and less than 1000 nM in assay [4].
Turning to `C#Cc1cc(=O)n(C)c2nc(Nc3ccc(N4CCN(C)CC4)c(S(=O)(=O)NCC4CCCC4)c3)ncc12` [Example 218], the IC50 was 1000 to 3000 nM in assay [1], greater than 3000 nM in assay [2], greater than 3000 nM in assay [3] and less than 1000 nM in assay [4].
For `C#Cc1cc(=O)n(C)c2nc(Nc3ccc(N4CCN(C)CC4)c(NC(=O)NC4CCCC4)c3)ncc12` [Example 219, 3-Cyclopentyl-1-[5-({5-ethynyl-8-methyl-7-oxopyrido[2,3-d]pyrimidin-2-yl}amino)-2-(4-methylpiperazin-1-yl)phenyl]urea], the IC50 was 500 to 1000 nM in assay [1], 500 to 1000 nM in assay [2], greater than 3000 nM in assay [3] and less than 1000 nM in assay [4].
For `C#Cc1cc(=O)n(C)c2nc(Nc3ccc(N4CCN(C)CC4)c(OCCc4ccnn4C)c3)ncc12` [Example 220, 5-Ethynyl-8-methyl-2-((3-(2-(1-methyl-1H-pyrazol-5-yl)ethoxy)-4-(4-methylpiperazin-1-yl)phenyl)amino)pyrido[2,3-d]pyrimidin-7(8H)-one], the IC50 was less than 500 nM in assay [1], less than 500 nM in assay [2], 1000 to 3000 nM in assay [3] and less than 1000 nM in assay [4].
With `C#Cc1cc(=O)n(C)c2nc(Nc3ccc(N4CCN(C)CC4)c(C(=O)NCC4CCCC4)c3)ncc12` [Example 221, N-(Cyclopentylmethyl)-5-({5-ethynyl-8-methyl-7-oxopyrido[2,3-d]pyrimidin-2-yl}amino)-2-(4-methylpiperazin-1-yl)benzamide], the IC50 in assay [1] is 500 to 1000 nM; in assay [2], 1000 to 3000 nM; in assay [3] it was greater than 3000 nM; in assay [4], 1000 to 10000 nM.
Take `C#Cc1cc(=O)n2c3nc(ncc13)Nc1ccc(N3CCN(C)CC3)c(c1)NC(=O)CCC2` [Example 222, 1^5-ethynyl-3^4-(4-methylpiperazin-1-yl)-1^7,1^8-dihydro-2,4-diaza-1(2,8)-pyrido[2,3-d]pyrimidina-3(1,3)-benzenacyclooctaphane-1^7,5-dione]: the IC50 in assay [1] was less than 500 nM; in assay [2], less than 500 nM; in assay [3], 1000 to 3000 nM; in assay [4], less than 1000 nM.
Consider `C#Cc1cc(=O)n2c3nc(ncc13)Nc1ccc(N3CCN(C)CC3)c(c1)CN(C)C(=O)CC2` [Example 223, 1^5-Ethynyl-5-methyl-3^4-(4-methylpiperazin-1-yl)-1^7,1^8-dihydro-2,5-diaza-1(2,8)-pyrido[2,3-d]pyrimidina-3(1,3)-benzenacyclooctaphane-1^7,6-dione], for which the IC50 was less than 500 nM in assay [1], less than 500 nM in assay [2], 1000 to 3000 nM in assay [3] and less than 1000 nM in assay [4].
Take `C#Cc1cc(=O)n2c3nc(ncc13)Nc1ccc(N3CCN(C)CC3)c(c1)C(=O)NCCC2` [Example 224, 1^5-ethynyl-3^4-(4-methylpiperazin-1-yl)-1^7,1^8-dihydro-2,5-diaza-1(2,8)-pyrido[2,3-d]pyrimidina-3(1,3)-benzenacyclooctaphane-1^7,4-dione]: the IC50 is greater than 3000 nM in assay [1], greater than 3000 nM in assay [2], greater than 3000 nM in assay [3] and greater than 10000 nM in assay [4].

Source of the values: patent US20260137703A1, “2-AMINO-PYRIDO[2,3-D]PYRIMIDIN-7(8H)-ONE AND 7-AMINO-1-PYRIMIDO[4,5-D]PYRIMIDIN-2(1 H)-ONE DERIVATIVES AS EGFR INHIBITORS FOR THE TREATMENT OF CANCER” (Cancer Research Technology Limited, priority 2022, published 2026).
